From patent US20090169538A1, “Methods of Treating or Preventing Tissue Damage Caused by Increased Blood Flow” (REGENERX BIOPHARMACEUTICALS, INC., priority 2006, published 2009) come the findings set out here.

For the experiment, the system named is embryonic heart explants. It is filed as cell-based. Particulars: explants in presence of thymosin β4 with 100 nM wortmanin, p<0.05. The source says: To test the effects of secreted thymosin β4 on cardiac cell migration, an embryonic heart explant system designed to assay cell migration and transformation events on a three-dimensional collagen gel was utilized. In this assay, explants of adjacent embryonic myocardium and endocardium from valve-forming regions were placed on a collagen gel with the endocardium adjacent to the collagen.
Outflow tract was dissected from E11.5 wild type mouse embryos and placed on collagen matrices as previously described. After 10 hours of attachment explants were incubated in 30 ng/300 μl thymosin β4 in PBS, PBS alone or thymosin β4 and 100 nM wortmanin. Cultures were carried out for 3-9 days at 37° C. 5% CO2 and fixed in 4% paraformaldehyde in PBS for 10 min at RT. Cells were counted for quantification of migration and distance using at least three separate explants under each condition for endothelial migration and eight separate explants for myocardial migration.
Paraformaldehyde-fixed explants were permeabilized for 10 min at RT with Permeabilize solution (10 mM PIPES pH6.8; 50 mMNaCl; 0.5% Triton X-100; 300 mM Sucrose; 3 mM MgCl2) and rinsed with PBS 2×5 min at RT. After a series of blocking and rinsing steps, detection antibodies were used and explants rinsed and incubated with Equilibration buffer (Anti-Fade kit) 10 min at room temperature. Explants were scooped to a glass microscope slide, covered, and examined by fluorescein microscopy. TUNEL assay was performed using ApopTag Plus Fluorescein In Situ Apoptosis detection kit (Intergen Company # S7111) as recommended.

Turning to `COC[C@H]1OC(=O)c2coc3c2[C@@]1(C)C1=C(C3=O)[C@@H]2CCC(=O)[C@@]2(C)C[C@H]1OC(C)=O` [wortmanin, reference compound], the “beating frequency upon inhibition of ILK” value is recorded as “significant reduction” and the “myocardial cell migration upon inhibition of ILK” value is “significant reduction”.
